As usually defined, the IC50 is the concentration needed to halve the response being measured.

One series has as its target T1, TRPC6 (Homo sapiens, UniProt Q9Y210).
T1 construct: expressed in transfected cells
T1 sequence (Q9Y210 1-931): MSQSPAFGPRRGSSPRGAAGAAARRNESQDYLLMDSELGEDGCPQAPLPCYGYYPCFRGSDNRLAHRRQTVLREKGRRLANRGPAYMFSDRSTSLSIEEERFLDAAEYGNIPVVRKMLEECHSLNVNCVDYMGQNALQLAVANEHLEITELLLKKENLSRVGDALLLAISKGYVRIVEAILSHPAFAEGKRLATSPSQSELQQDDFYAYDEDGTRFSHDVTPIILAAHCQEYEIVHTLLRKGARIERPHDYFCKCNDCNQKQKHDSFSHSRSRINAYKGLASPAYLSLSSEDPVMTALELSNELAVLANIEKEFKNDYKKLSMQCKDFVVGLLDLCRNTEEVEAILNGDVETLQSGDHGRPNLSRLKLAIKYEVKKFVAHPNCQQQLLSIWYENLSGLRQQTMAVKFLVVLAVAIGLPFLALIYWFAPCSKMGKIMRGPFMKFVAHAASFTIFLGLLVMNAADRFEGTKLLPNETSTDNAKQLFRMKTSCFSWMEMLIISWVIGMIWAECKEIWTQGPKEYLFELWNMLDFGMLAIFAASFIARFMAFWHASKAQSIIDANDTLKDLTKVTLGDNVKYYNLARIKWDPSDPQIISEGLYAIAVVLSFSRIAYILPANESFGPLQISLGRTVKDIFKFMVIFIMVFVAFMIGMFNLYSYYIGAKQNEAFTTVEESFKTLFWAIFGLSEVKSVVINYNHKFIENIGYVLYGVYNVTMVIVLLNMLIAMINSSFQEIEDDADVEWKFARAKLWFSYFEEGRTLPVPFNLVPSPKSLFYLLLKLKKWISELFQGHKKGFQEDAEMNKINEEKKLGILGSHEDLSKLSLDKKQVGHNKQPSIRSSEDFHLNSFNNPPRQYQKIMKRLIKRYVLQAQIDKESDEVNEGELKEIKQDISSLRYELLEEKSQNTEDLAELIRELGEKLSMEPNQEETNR
Description: OAG-induced Ca2+ entry in Fura2-loaded HEK293 cells expressing TRPC6. Particulars: ELP-004 0 to 1 mM for 10 minutes before OAG, FIG. 1D, read-out: IC50, inhibition of OAG-induced Ca2+ entry. The series is classed as cell-based. Here is the method:
Inhibition of DAG-mediated TRPC activation. To determine if ELP-004 (N-MeDCPA) inhibits DAG-induced TRPC activation, HEK293 cells expressing TRPC3, TRPC6 or TRPC7 were loaded with Fura2 and incubated with ELP-004 (0 to 1 mM) for 10 minutes prior to challenging with 1-Oleoyl-2-acetyl-sn-glycerol (OAG), a membrane permeable form of diacylglycerol.
Cell Culture—HEK293 cells were grown in DMEM with 4.5 g/L glucose supplemented with 10% FBS and 1% Gentamycin (Full DMEM media; Thermo-Fisher Scientific, Waltham, MA) at 37° C. and 5% CO2. […]
TRPC activity assay—Cells grown on glass coverslips were incubated in a cation-safe buffer (107 mM NaCl, 7.2 mM KCl, 1.2 mM MgCl2, 11.5 mM Glucose, 20 mM HEPES-NaOH, 1 mM CaCl2), pH 7.2) and loaded with Fura2-acetoxymethylester (Fura2-AM; 2 μM) for 30 min at 24° C. as previously described^10,11. […] Ca^2+/Sr^2+ measurements were taken using a Leica DMI 6000B fluorescence microscope controlled by Slidebook software (Intelligent Imaging Innovations, Denver, CO). Fluorescence emission at 505 nm was monitored in response to excitation at alternating 340 nm and 380 nm wavelengths at a frequency of 0.67 Hz; intracellular Ca^2+ measurements are shown at 340/380 nm ratios obtained from groups of 35-45 single cells.

For series [1], the system named is bone erosion in collagen-induced arthritis (CIA). Description: Collagen-induced arthritis (CIA) bone erosion in mice. The series is classed as in vivo. The source says: Inflammatory arthritis often requires treatments with serious side effects. Later in arthritis, bone erosion is a major problem that causes severe pain and debilitation. There is no small molecule drug available to specifically treat arthritis bone erosion. […] In previous studies, we had focused on store-operated Ca^2+ entry as the target of ELP-004, since Orail is required for osteoclast differentiation and ELP-004 blocks RANKL-induced osteoclast differentiation and SOCE at similar concentrations. However, ELP-004 blocks bone erosion in vivo at a remarkable 1000-fold higher efficacy, leading us to question the identity of the critical ion channel. To address this question, we performed a series of ELP-004 dose responses on HEK293 cells overexpressing different combinations of STIM/Orai, TRPC channels or CaV1.2. Remarkably, all TRPC channels were highly sensitive to ELP-004, leading us to consider the possibility that TRPC channels are the true target in arthritis-induced bone erosion. We are currently assessing the possibility that ELP-004 may inhibit osteoclastogenesis with higher efficacy when driven by inflammatory cytokines, both in vitro and in vivo. […]

In series [2] the test system is Mouse splenic monocytes. Description: Osteoclast differentiation of mouse splenic monocytes. Particulars: 21 days of culture with RANKL+m-CSF; 100 nM ELP-004. The series is classed as cell-based. Here is the method: ELP-004 blocks TNF-α-induced osteoclast differentiation. Mouse splenic monocytes were induced to differentiate into osteoclasts. Results were obtained of osteoclast cells after 21 days of culture with RANKL+m-CSF alone or with the addition of 100 nM ELP-004. […] Thus, ELP-004 inhibits osteoclastogenesis.

Series [3] concerns Mouse splenic monocytes. Description: Osteoclast resorption (pit formation) on Corning osteo-assay surface plates. The series is classed as cell-based. Conditions: 1 ng/ml RANKL, 2 ng/ml TNFα, 50 ng/ml m-CSF; 7, 14 or 21 days; 100 nM ELP-004. Here is the method: Mouse splenic monocytes were induced to differentiate by the addition of 1 ng/ml RANKL, 2 ng/ml TNFα and 50 ng/ml m-CSF. The panels of FIG. 6 show a representative photomicrograph of cells after 7, 14, or 21 days of culture on Corning osteo-assay surface plates with RANKL+mCSF+TNFα or with the addition of 100 nM ELP-004.

The next series deals with dopamine transporter (Homo sapiens, UniProt Q01959). In words: Dopamine transport. Here is the method:
ELP-004 was evaluated for its ability to cross the blood brain barrier. […] Other medications, such as for example but not limited to bupropion are known to cause problems due to dopamine transporter binding.

Chain of dopamine transporter (Q01959 whole entry): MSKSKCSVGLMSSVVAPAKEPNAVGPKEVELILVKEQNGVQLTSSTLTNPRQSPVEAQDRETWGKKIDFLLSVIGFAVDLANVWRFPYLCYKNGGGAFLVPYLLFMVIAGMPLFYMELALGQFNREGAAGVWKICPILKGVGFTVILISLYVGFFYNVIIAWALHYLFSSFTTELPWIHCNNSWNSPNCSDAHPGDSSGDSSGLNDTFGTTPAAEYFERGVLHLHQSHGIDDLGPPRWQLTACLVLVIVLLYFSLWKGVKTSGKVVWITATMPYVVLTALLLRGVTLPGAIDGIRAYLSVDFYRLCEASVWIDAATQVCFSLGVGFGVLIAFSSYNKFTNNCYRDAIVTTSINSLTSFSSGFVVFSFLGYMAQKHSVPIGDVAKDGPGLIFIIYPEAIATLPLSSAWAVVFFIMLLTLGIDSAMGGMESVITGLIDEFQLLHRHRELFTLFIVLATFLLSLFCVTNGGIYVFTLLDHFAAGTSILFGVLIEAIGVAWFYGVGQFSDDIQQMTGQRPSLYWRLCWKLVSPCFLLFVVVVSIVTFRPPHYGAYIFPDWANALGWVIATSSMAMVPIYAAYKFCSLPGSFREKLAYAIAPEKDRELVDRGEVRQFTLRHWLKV

With `CCC(=O)N(C)c1ccc(Cl)c(Cl)c1` [ELP-004, N-(3,4-dichlorophenyl)-N-methylpropanamide], the 50% inhibitory concentration (IC50) on TRPC6 was 1000 to 2000 nM. Besides, in series [1] (in vivo versus in vitro concentrations), the “efficacy of blocking bone erosion in vivo relative to RANKL-induced osteoclast differentiation and SOCE” value is on record as 1000 fold. For the same molecule, the “bone erosion in collagen-induced arthritis” value in series [1] (mice, even after symptoms of arthritis were measurable) was “strongly suppressed bone erosion”. Further, in the series on Mouse splenic monocytes [2], the “development of multinucleated osteoclasts” value was “inhibited development of multinucleated osteoclasts”. In addition, in the series on Mouse splenic monocytes [3], the “pit formation (osteoclast resorption)” value is on record as “inhibited pit formation”. Moreover, on dopamine transporter, the “problems with dopamine transport” value is on record as “does not cause problems with dopamine transport”.

These data come from patent US20240058283A1, “THE MODE OF ACTION OF N-MeDCPA ON TRPC CHANNELS” (West Virginia University Board of Governors on Behalf of …, priority 2022, published 2024).
